“Also recorded” adds a separate entry of the source. Where two headings read alike, the source gives them in different places.
Assays:
r-AppA = assay type: biochemical, Yersinia intermedia; conditions: 1 mM, pH 4.5
pepsin = assay: Protease resistance of r-AppA, incubation with pepsin; assay type: biochemical; conditions: 0.025 mg/ml phytase, 0.1 mg/ml pepsin, 37° C., 5 min to 2 h
Protocol: (§1) To determine the protease resistance, the purified phytase (0.025 mg/ml) was incubated with 0.1 mg/ml of pepsin and trypsin at 37° C. And then, sample incubated was collected respectively at 5 min, 10 min, 20 min, 30 min, 1 h, and 2 hs.

pH stability of r-AppA = assay type: physicochemical; conditions: 37° C.
Protocol: (§2) The r-AppA purified through Sephacryl S-200 was investigated an enzyme activity of phytase, according to temperature and pH. The effect of pH on phytase activity was determined using the following buffer solutions: glycine-HCl, pH 1.5-3.5; Na acetate-acetic acid, pH 3.5-6.0; Tris-HCl, pH 6.0-8.5, and glycine-NaOH, pH 8.5-10. All buffers used for dilution contained 0.05% BSA and 0.05% Triton. As is shown in FIG. 2, the enzyme activity varied with pH. […] 70% of the enzyme activity was still maintained at pH 2.5, and 65% of the enzyme activity was still maintained at pH 5.5. […] And over 70% activity still remained at pH 1.0-2.0.

trypsin = assay: Protease resistance of r-AppA, incubation with trypsin; assay type: biochemical; conditions: 0.025 mg/ml phytase, 0.1 mg/ml trypsin, 37° C., 5 min to 2 h
Protocol: as §1

[1] = Specific activity of purified r-AppA, ferrous sulfate-molybdenum blue method; assay type: biochemical; conditions: r-AppA purified through Sephacryl S-200; pH 4.5; protein by Lowry method
Protocol: A total of 72 transformants were analyzed for phytase activity by ferrous sulfate-molybdenum blue method. 950 μl of substrate solution (4 mM sodium phytase in 0.25M sodium acetate buffer, pH5.0) was added to 50 μl diluted enzyme solution, which was reacted at 37° C. for 30 minutes. Then, 1 mL of 10% TCA (trichloroacetic acid) solution was added to stop the reaction. As a control, TCA solution was added into the enzyme solution to inactivate the enzyme and then substrate solution was added. After the reaction has terminated, 2 mL of reagent C (0.576M acid sulfate, 1% ammonium molybdate, 7.32% Ferrous sulfate.7H2O) was added, and left for 10 minutes. The intensity of the blue color was measured at 700 nm, and activities in enzyme solution and in a control were measured. 1 unit of phytase activity was determined to be the enzyme amount releasing 1 μmol of phosphate for 1 minute. […]
In order to determinate the specific activity, the concentration of the r-AppA purified through Sephacryl S-200 was determined by the Lowry method, and the enzyme activity of the r-AppA purified was determined by ferrous sulfate-molybdenum blue method at pH 4.5. As a result, the specific activity of r-AppA purified was 3960±248 U/mg, which is the highest specific activity, comparing to other phytases recorded previously.

[2] = Heat stability of r-AppA at 80° C.; assay type: physicochemical
Protocol: (§3) As is shown in FIG. 3A, the enzyme activity varied with temperature. The temperature optima were determined at the pH optimum (pH 4.5) ranging the temperature values from 20 to 80° C. […] As is shown in FIG. 3B, when the enzyme was left at 80° C. for 10 minutes, over 50% of the activity was remained, and 40% of the activity was remained, at 80° C. for 1 hour. Compared to AppA from E. coli, which was widely used in feed industry as a feed additive, the r-AppA are higher stability at higher temperatures.

[3] = Enzyme activity of r-AppA according to temperature and pH; assay type: biochemical
Protocol: A total of 72 transformants were analyzed for phytase activity by ferrous sulfate-molybdenum blue method. 950 μl of substrate solution (4 mM sodium phytase in 0.25M sodium acetate buffer, pH5.0) was added to 50 μl diluted enzyme solution, which was reacted at 37° C. for 30 minutes. Then, 1 mL of 10% TCA (trichloroacetic acid) solution was added to stop the reaction. As a control, TCA solution was added into the enzyme solution to inactivate the enzyme and then substrate solution was added. After the reaction has terminated, 2 mL of reagent C (0.576M acid sulfate, 1% ammonium molybdate, 7.32% Ferrous sulfate.7H2O) was added, and left for 10 minutes. The intensity of the blue color was measured at 700 nm, and activities in enzyme solution and in a control were measured. 1 unit of phytase activity was determined to be the enzyme amount releasing 1 μmol of phosphate for 1 minute. Two days after methanol induction, 11 transformants out of 72 produced phytase activity from 48 to 270 U/mL of medium. Obviously, the ORF obtained above, was a novel gene, which encoded a polypeptide with phytase activity. The polypeptide with phytase activity, which encoded by mature region of OFR, was named r-AppA.
as §2, §3

[Ag+] [Ag]
Enzyme activity of r-AppA (control = 100) (r-AppA): 84

[Ca+2] [Ca]
Enzyme activity of r-AppA (control = 100) (r-AppA): 98

[Co+2] [Co]
Enzyme activity of r-AppA (control = 100) (r-AppA): 93

[Cu+2] [Cu]
Enzyme activity of r-AppA (control = 100) (r-AppA): 61 | effect on enzyme activity of r-AppA, in words (r-AppA; listed as Cu^2+): obviously inhibited; also recorded: strongly inhibited

O=C(O)CN(CCN(CC(=O)O)CC(=O)O)CC(=O)O [EDTA]
Enzyme activity of r-AppA (control = 100) (r-AppA): 101 | effect on enzyme activity of r-AppA, in words (r-AppA): not significantly changed

[Fe+2] [Fe]
Enzyme activity of r-AppA (control = 100) (r-AppA): 47 | effect on enzyme activity of r-AppA, in words (r-AppA; listed as Fe^2+): obviously inhibited; also recorded: strongly inhibited

[K+] [K]
Enzyme activity of r-AppA (control = 100) (r-AppA): 99

[Li+] [Li]
Enzyme activity of r-AppA (control = 100) (r-AppA): 95

[Mg+2] [Mg]
Enzyme activity of r-AppA (control = 100) (r-AppA): 94

[Mn+2] [Mn]
Enzyme activity of r-AppA (control = 100) (r-AppA): 104 | effect on enzyme activity of r-AppA, in words (r-AppA): weakly enhanced

[Na+] [Na]
Enzyme activity of r-AppA (control = 100) (r-AppA): 95

[Ni+2] [Ni]
Enzyme activity of r-AppA (control = 100) (r-AppA): 98

CCCCCCCCCCCCOS(=O)(=O)[O-].[Na+] [SDS]
Enzyme activity of r-AppA (control = 100) (r-AppA): 9 | effect on enzyme activity of r-AppA, in words (r-AppA): almost lost

[Zn+2] [Zn]
Enzyme activity of r-AppA (control = 100) (r-AppA): 44 | effect on enzyme activity of r-AppA, in words (r-AppA; listed as Zn^2+): obviously inhibited; also recorded: strongly inhibited

r-AppA: polypeptide with phytase activity encoded by mature region of the ORF from Yersinia intermedia H-27, expressed in Pichia pastoris (SEQ ID NO: 3)
phytase activity after incubation with pepsin (pepsin): not significantly changed | phytase activity after incubation with pepsin (pepsin; listed as phytase): strong resistance | activity remained (pH stability) (pH stability of r-AppA; pH 1.0-2.0, 2 hours): over 70% | activity remained (pH stability) (pH stability of r-AppA; pH 2.5-10, 2 hours): over 85% | phytase activity after incubation with trypsin (trypsin): not significantly changed | phytase activity after incubation with trypsin (trypsin; listed as phytase): strong resistance | specific activity [1]: 3960±248 U/mg | activity remained (heat stability) ([2]; 80° C. for 10 minutes): over 50% | activity remained (heat stability) ([2]; 80° C. for 1 hour): 40% | enzyme activity maintained (relative to maximum) ([3]; at pH 2.5): 70% | temperature of highest activity (optimal temperature) ([3]; at pH 4.5, 20 to 80° C.): 55 °C | enzyme activity maintained (relative to maximum) ([3]; at pH 5.5): 65% | pH of highest activity (optimal pH) ([3]; buffers pH 1.5-10): 4.5
